Our source for the IC50 values is ChEMBL document CHEMBL4482324, “Ash1l inhibitors and methods of treatment therewith” (2017).

Molecules are shown by their SMILES. Where only a bound is given, the exact number is not on record here.

In this test the target is Histone-lysine N-methyltransferase ASH1L (Homo sapiens, UniProt Q9NR48). Nature of the test: Inhibition of MOCR-fused ASH1L SET-BAH ( 2069 to 2833 amino acids) (unknown origin) expressed as in Escherichia coli BL21 (DE3) T1R cells using SAM and chicken mono/dinucleosomes incubated for 1 hr by scintillation counting assay.
Usually IC50 stands for the midpoint of a concentration-inhibition curve. Read a high IC50 as lower potency. For `NC(=S)c1cccc(-c2cc(CC(CF)CF)c3cc[nH]c3c2)c1`, the IC50 was < 20 µM. Then `NC(=S)c1cccc(-c2cccc3[nH]c(CNCCCO)cc23)c1`, with > 100 µM; and `NC(=S)c1cccc(-c2cn(CC3OCCO3)c3cc(N)ccc23)c1`, with 20 to 100 µM. In the case of `NC(=S)c1cccc(-c2cc(CC(CF)CF)c3[nH]ccc3c2)c1`, the IC50 is < 20 µM.

With `CS(=O)(=O)N1CCC(n2cc(-c3cccc(C(N)=S)c3)c3ccc(CNC(=O)CC4CCNC4)cc32)CC1` (stereo not drawn), the IC50 was < 20 µM. Next, `NC(=S)c1cccc(-c2cn(CCC(F)F)c3cc(CO)c(F)cc23)c1`: < 20 µM. With `Cc1cc(O)ccc1-c1cncc(C(N)=S)c1`, the IC50 is > 100 µM. Next, `CS(=O)(=O)N1CCC(n2cc(-c3cccc(C(N)=S)c3)c3ccc(CNC(=O)Cc4ccc[nH]4)cc32)CC1`: < 20 µM; `NC(=S)c1cccc(-c2ccc(O)c3[nH]ccc23)c1`: 20 to 100 µM. Molecule `NC(=S)c1cccc(-c2cc(C(F)(F)F)cc3[nH]ccc23)c1` gave an IC50 of 20 to 100 µM.

For the molecule `NC(=S)c1cccc(-c2ccccc2O)c1`, the IC50 is > 100 µM. For `Cc1cc(C(N)=S)cc(-c2ccc(O)cc2)c1`, the IC50 was > 100 µM. Then `NC(=S)c1cccc(-c2cn(CCCC(F)(F)F)c3cc(CO)ccc23)c1`, with < 20 µM; and `CCCn1cncc1CC(=O)NCc1ccc2c(-c3cccc(C(N)=S)c3)cn(C3CCN(S(=O)(=O)CCC)CC3)c2c1`, with < 20 µM.

In the case of `NC(=S)c1cccc(-c2cn(CC(O)(CC(F)(F)F)CC(F)(F)F)c3cc(N)ccc23)c1`, the IC50 is < 20 µM. As to `NC(=S)c1cccc(-c2cn(CC(CF)CF)c3cc(CO)ccc23)n1`, the IC50 was < 20 µM.

In turn, `CC(=O)NCc1ccc2c(-c3cccc(C(N)=S)c3)c[nH]c2c1` returned an IC50 of 20 to 100 µM.

Consider `CS(=O)(=O)N1CCC(n2cc(-c3cccc(C(N)=S)c3)c3ccc(CNC(=O)Nc4cc[nH]n4)cc32)CC1`, for which the IC50 is < 20 µM. Next, `NC(=S)c1ccnc(-n2cccc2)c1`: > 100 µM; `NC(=S)c1cc(-c2ccccc2)cs1`: > 100 µM; `NC(=S)c1cncc(-c2ccc(O)cc2)c1`: > 100 µM. Next, `NC(=S)c1cc(-c2cn(CCC(F)F)c3cc(CO)ccc23)ccc1F`: < 20 µM. Then `NC(=S)c1cccc(-c2c[nH]c3cccnc23)c1`, with > 100 µM. With `NC(=S)c1cccc(-c2cn(CCO)c3cc([N+](=O)[O-])ccc23)c1`, the IC50 lay in the range of 20 to 100 µM.

Turning to `NC(=S)c1cccc(-c2cn(C3CCOCC3)c3cc(N)ccc23)c1`, the IC50 was < 20 µM. With `CSCCn1cc(-c2cccc(C(N)=S)c2)c2ccccc21`, the IC50 was > 100 µM. Next, `NC(=S)c1cccc(-c2cccc3[nH]ncc23)n1`: > 100 µM.

On to `CNCc1ccc2c(-c3cccc(C(N)=S)c3)c[nH]c2c1`, for which the IC50 lay within 20 to 100 µM.

Regarding `NC(=S)c1cccc(-c2cn(CC3(F)CC3)c3cc(CO)ccc23)c1`, the IC50 was < 20 µM. Then `NC(=S)c1cccc(-c2cn(CC(CO)C(F)F)c3cc(CO)ccc23)c1` (stereo not drawn), with < 20 µM; and `NC(=S)c1cccc(-c2c[nH]c3c(CO)cccc23)c1`, with 20 to 100 µM. Then `NC(=S)c1cccc(-c2cccc3nc(N)sc23)c1`, with 20 to 100 µM; and `NC(=S)c1cccc(-c2cn(CC(F)(F)F)c3cc(NCC(F)(F)F)ccc23)c1`, with < 20 µM.

On to `NC(=S)c1cccc(-c2cn(CC3(F)CCC3)c3cc(CO)ccc23)c1`, for which the IC50 was < 20 µM. With `NC(=S)c1cc(-c2cn(CC(CF)CF)c3cc(CO)ccc23)ccc1O`, the IC50 is < 20 µM. Next, `NC(=S)c1cccc(-c2cn(CC(CF)CF)c3cc(CF)ccc23)c1`: < 20 µM. Then `NC(=S)c1cc(-c2c[nH]c3ccccc23)ccc1N`, with > 100 µM; and `NC(=S)c1cccc(-c2cn(C3CCN(S(N)(=O)=O)CC3)c3cc(N)ccc23)c1`, with < 20 µM.

In the case of `NC(=S)c1cccc(-c2cn(CC(CF)CF)c3cc(CNCCOCCOCCOCCNc4cccc5c4C(=O)N(C4CCC(=O)NC4=O)C5=O)ccc23)c1` (stereo not drawn), the IC50 is < 20 µM. Next, `NC(=S)c1cccc(-c2cn(C3CCCCC3)c3cc(CO)ccc23)c1`: < 20 µM. As for `NC(=S)c1cc(-c2cn(CCC(F)F)c3cc(CO)ccc23)ccn1`, the IC50 is < 20 µM. `Cc1cc2c(-c3cccc(C(N)=S)c3)ccc(O)c2[nH]1` yielded an IC50 of 20 to 100 µM. With `NC(=S)c1cccc(-c2cc(CCC(F)F)c3cc[nH]c3c2)c1`, the IC50 is < 20 µM. Then `CS(=O)(=O)N1CCC(n2cc(-c3cccc(C(N)=S)c3)c3ccc(CNc4nnc(N)s4)cc32)CC1`, with < 20 µM; and `CCCS(=O)(=O)N1CCC(n2cc(-c3cccc(C(N)=S)c3)c3ccc(CNC(=O)CCCCc4cccc5c4C(=O)N(C4CCC(=O)NC4=O)C5=O)cc32)CC1` (stereo not drawn), with < 20 µM. Then `COc1cc(C(N)=S)cc(-c2cccc3[nH]ccc23)c1`, with > 100 µM; and `NC(=S)c1cccc(-c2cn(C3CCCCC3O)c3cc(CO)ccc23)c1` (stereo not drawn), with < 20 µM. On to `CSCCn1cc(-c2cccc(C(N)=S)c2)c2ccc(N)cc21`, for which the IC50 was < 20 µM.

As to `CCCS(=O)(=O)N1CCC(n2cc(-c3cccc(C(N)=S)c3)c3ccc(CNc4c[nH]c(C)n4)cc32)CC1`, the 50% inhibitory concentration (IC50) was < 20 µM.

As for `NC(=S)c1cc(F)cc(-c2ccc(O)cc2)c1`, the IC50 is > 100 µM. Turning to `NC(=S)c1cccc(-c2ccc(O)c3c2CCC3O)c1` (stereo not drawn), the IC50 is > 100 µM. Then `NC(=S)c1cccc(-c2cn(C3CCNCC3)c3cc(N)ccc23)c1`, with < 20 µM; and `Cc1[nH]c2ccccc2c1-c1cccc(C(N)=S)c1`, with > 100 µM; and `NC(=S)c1cccc(-c2cn(CCCC(F)(F)F)c3cc(CNC(=O)c4ccccc4)ccc23)c1`, with < 20 µM.

Turning to `NC(=S)c1cccc(-c2cn(C3CCN(S(=O)(=O)CCCNC(=O)c4ccc5c(c4)C(=O)OC54c5ccc(O)cc5Oc5cc(O)ccc54)CC3)c3cc(CNC(=O)Cc4c[nH]cn4)ccc23)c1`, the IC50 is < 20 µM. For `NC(=O)c1cc(-c2cn(CCC(F)F)c3cc(CO)ccc23)ccc1N`, the IC50 was < 20 µM. Then `NC(=S)c1cccc(-c2cn(CCO)c3cc(N)ccc23)c1`, with 20 to 100 µM; and `CS(=O)(=O)N1CCC(n2cc(-c3cccc(C(N)=S)c3)c3ccc(CNC(=O)Cc4[nH]cc5ccccc45)cc32)CC1`, with < 20 µM.

As for `Cc1c(O)ccc(-c2cncc(C(N)=S)c2)c1C`, the IC50 was > 100 µM.

For `NC(=S)c1cccc(-c2cn(C3CCN(S(=O)(=O)CCNC(=O)COc4cccc5c4C(=O)N(C4CCC(=O)NC4=O)C5=O)CC3)c3cc(CNc4nnc(N)s4)ccc23)c1` (stereo not drawn), the IC50 was < 20 µM.

On to `NCc1ccc2c(c1)c(CC(CF)CF)cn2-c1cccc(C(N)=S)c1`, for which the IC50 is < 20 µM. Next, `Cc1c[nH]c2cccc(-c3cccc(C(N)=S)c3)c12`: > 100 µM. Next, `NC(=S)c1cccc(-c2cc(C(F)(F)F)cc3c2ccn3CC(F)(F)F)c1`: 20 to 100 µM. Next, `NC(=S)c1cccc(-c2cccc3c2ccn3CO)c1`: 20 to 100 µM; `COc1ccc(-c2cccc(C(N)=S)c2)cc1`: > 100 µM; `NC(=O)c1cccc(-c2cn(CCC(F)F)c3cc(CO)ccc23)c1`: < 20 µM.

Consider `NC(=S)c1cccc(-c2cn(CCC(F)F)c3cc4c(cc23)CCNC4)c1`, for which the IC50 was < 20 µM. As to `NC(=S)c1cccc(-c2c[nH]c3cnc(N)cc23)c1`, the IC50 is > 100 µM.
